{"source": "patent US9995734B2", "about": "“Human T cell line assay for evaluating the immunologic identity of glatiramer acetate preparations” (Mylan Inc., priority 2013, dated 2018)", "type_in_all_cases": "cell-based, human", "key": {"[1]": {"tested_on": "Donor 4 COP T-Cell Lines", "assay": "ATP proliferation assay (CellTiter Glo), Donor 4 COP T-cell lines, incl. reactivity to non-canonical GA peptides", "conditions": "for luminescent ATP proliferation assay, Mean RLU: 205-1H7; for luminescent ATP proliferation assay, Mean RLU / Mean RLU: Day 59, 4 days incubation; for Mean, ATP proliferation assay: Cell Line 205-1F4; for Mean RLU: T-Cell Line 205-1H11"}, "[2]": {"tested_on": "Donor 1 GMA Expanded T-Cell Lines (222-AG11, 222-AG12, 222-BA11, 222-BC11)", "assay": "ATP proliferation assay (CellTiter Glo), Donor 1 GMA expanded T-cell lines, incl. reactivity to non-canonical GA peptides", "conditions": "T-cell line 222-AG12, autologous B-LCL", "outline": "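GMA-expanded T-cell lines from Donor 1 restimulated with GMA (0–100 μg/mL), or with non-canonical GA peptides, COP and GMA (0–30 μg/mL; T cells 2×10^5 cells/mL). Mitomycin C-treated autologous PBMC or B-LCL served as APC. Proliferation read by CellTiter-Glo ATP luminescence after 3 days at 37° C.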"}, "[3]": {"tested_on": "Donor 3 COP T-Cell Lines", "assay": "ATP proliferation assay (CellTiter Glo), Donor 3 COP T-cell lines, incl. reactivity to non-canonical GA peptides", "conditions": "for ATP proliferation assay: 10 μg/mL, Day 14"}}}
{"substance": "glatiramer acetate [COP]", "values": [{"measurement": "luminescent ATP proliferation assay, Mean RLU", "setting": "[1]; 1 μg/mL, 0 μg/mL 3382", "result": 13131, "unit": "RLU"}, {"measurement": "luminescent ATP proliferation assay, Mean RLU", "setting": "[1]; 10 μg/mL, 0 μg/mL 3382", "result": 175652, "unit": "RLU"}, {"measurement": "luminescent ATP proliferation assay, Mean RLU", "setting": "[1]; 30 μg/mL, 0 μg/mL 3382", "result": 190750, "unit": "RLU"}, {"measurement": "Mean, ATP proliferation assay", "setting": "[1]; Day 50, 1 μg/mL", "result": 47254}, {"measurement": "Mean, ATP proliferation assay", "setting": "[1]; Day 50, 3 μg/mL", "result": 169021}, {"measurement": "Mean, ATP proliferation assay", "setting": "[1]; Day 50, 10 μg/mL", "result": 213196}, {"measurement": "Mean, ATP proliferation assay", "setting": "[1]; Day 58, 3 μg/mL", "result": 21031}, {"measurement": "Mean, ATP proliferation assay", "setting": "[1]; Day 58, 10 μg/mL", "result": 31423}, {"measurement": "Mean, ATP proliferation assay", "setting": "[1]; Day 58, 30 μg/mL", "result": 31323}, {"measurement": "Mean, ATP proliferation assay", "setting": "[1]; Day 58, 100 μg/mL", "result": 31188}, {"measurement": "Mean RLU", "setting": "[1]; 1 μg/mL COP", "result": 12243, "unit": "RLU"}, {"measurement": "Mean RLU", "setting": "[1]; 10 μg/mL COP", "result": 147464, "unit": "RLU"}, {"measurement": "Mean RLU", "setting": "[1]; 30 μg/mL COP", "result": 112673, "unit": "RLU"}, {"measurement": "Reactivity (proliferation), Mean", "setting": "[1]; T-cell line 205-1B4, 1 μg/mL antigen, No Antigen 830", "result": 1522, "unit": "RLU"}, {"measurement": "Reactivity (proliferation), Mean", "setting": "[1]; T-cell line 205-1B4, 3 μg/mL antigen, No Antigen 830", "result": 5501, "unit": "RLU"}, {"measurement": "Reactivity (proliferation), Mean", "setting": "[1]; T-cell line 205-1B4, 10 μg/mL antigen, No Antigen 830", "result": 11273, "unit": "RLU"}, {"measurement": "COP 10 μg/mL, ATP proliferation assay", "setting": "[1]; T-cell line 205-1B4, Day 13, 10 μg/mL", "result": 84937, "unit": "RLU"}, {"measurement": "COP 10 μg/mL, ATP proliferation assay", "setting": "[1]; T-cell line 205-1B7, Day 13, 10 μg/mL", "result": 74147, "unit": "RLU"}, {"measurement": "Reactivity (proliferation), Mean", "setting": "[1]; T-cell line 205-1C4, 1 μg/mL antigen, No Antigen 4464", "result": 8859, "unit": "RLU"}, {"measurement": "Reactivity (proliferation), Mean", "setting": "[1]; T-cell line 205-1C4, 3 μg/mL antigen, No Antigen 4464", "result": 26612, "unit": "RLU"}, {"measurement": "Reactivity (proliferation), Mean", "setting": "[1]; T-cell line 205-1C4, 10 μg/mL antigen, No Antigen 4464", "result": 41287, "unit": "RLU"}, {"measurement": "COP 10 μg/mL, ATP proliferation assay", "setting": "[1]; T-cell line 205-1C4, Day 13, 10 μg/mL", "result": 69861, "unit": "RLU"}, {"measurement": "COP 10 μg/mL, ATP proliferation assay", "setting": "[1]; T-cell line 205-1D1, Day 13, 10 μg/mL", "result": 63419, "unit": "RLU"}, {"measurement": "COP 10 μg/mL, ATP proliferation assay", "setting": "[1]; T-cell line 205-1E1, Day 13, 10 μg/mL", "result": 44198, "unit": "RLU"}, {"measurement": "COP 10 μg/mL, ATP proliferation assay", "setting": "[1]; T-cell line 205-1F2, Day 13, 10 μg/mL", "result": 71947, "unit": "RLU"}, {"measurement": "COP 10 μg/mL, ATP proliferation assay", "setting": "[1]; T-cell line 205-1F4, Day 13, 10 μg/mL", "result": 33143, "unit": "RLU"}, {"measurement": "Proliferation (luminescent ATP assay), Mean", "setting": "[1]; T-cell line 205-1F4, Day 71, 1 μg/mL antigen, autologous B-LCL", "result": 47254}, {"measurement": "Proliferation (luminescent ATP assay), Mean", "setting": "[1]; T-cell line 205-1F4, Day 71, 3 μg/mL antigen, autologous B-LCL", "result": 169021}, {"measurement": "Proliferation (luminescent ATP assay), Mean", "setting": "[1]; T-cell line 205-1F4, Day 71, 10 μg/mL antigen, autologous B-LCL", "result": 213196}, {"measurement": "COP 10 μg/mL, ATP proliferation assay", "setting": "[1]; T-cell line 205-1G3, Day 13, 10 μg/mL", "result": 54211, "unit": "RLU"}, {"measurement": "COP 10 μg/mL, ATP proliferation assay", "setting": "[1]; T-cell line 205-1H1, Day 13, 10 μg/mL", "result": 29824, "unit": "RLU"}, {"measurement": "Reactivity (proliferation), Mean", "setting": "[1]; T-cell line 205-1H3, 1 μg/mL antigen, 0 μg/mL 4121.0", "result": 32122.0}, {"measurement": "Reactivity (proliferation), Mean", "setting": "[1]; T-cell line 205-1H3, 3 μg/mL antigen, 0 μg/mL 4121.0", "result": 49585.0}, {"measurement": "Reactivity (proliferation), Mean", "setting": "[1]; T-cell line 205-1H3, 10 μg/mL antigen, 0 μg/mL 4121.0", "result": 60878.3}, {"measurement": "COP 10 μg/mL, ATP proliferation assay", "setting": "[1]; T-cell line 205-1H3, Day 13, 10 μg/mL", "result": 55518, "unit": "RLU"}, {"measurement": "COP 10 μg/mL, ATP proliferation assay", "setting": "[1]; T-cell line 205-1H4, Day 13, 10 μg/mL", "result": 50307, "unit": "RLU"}, {"measurement": "Reactivity (proliferation), Mean", "setting": "[1]; T-cell line 205-1H5, 1 μg/mL antigen, No Antigen 749", "result": 2375, "unit": "RLU"}, {"measurement": "Reactivity (proliferation), Mean", "setting": "[1]; T-cell line 205-1H5, 3 μg/mL antigen, No Antigen 749", "result": 7182, "unit": "RLU"}, {"measurement": "Reactivity (proliferation), Mean", "setting": "[1]; T-cell line 205-1H5, 10 μg/mL antigen, No Antigen 749", "result": 8580, "unit": "RLU"}, {"measurement": "COP 10 μg/mL, ATP proliferation assay", "setting": "[1]; T-cell line 205-1H5, Day 13, 10 μg/mL", "result": 57608, "unit": "RLU"}, {"measurement": "Proliferation (luminescent ATP assay), Mean", "setting": "[1]; T-cell line 205-1H7, 1μg/mL antigen, after seven stimulations, 0 μg/mL 3382", "result": 13131, "unit": "RLU"}, {"measurement": "Proliferation (luminescent ATP assay), Mean", "setting": "[1]; T-cell line 205-1H7, 10 μg/mL antigen, after seven stimulations, 0 μg/mL 3382", "result": 175652, "unit": "RLU"}, {"measurement": "Proliferation (luminescent ATP assay), Mean", "setting": "[1]; T-cell line 205-1H7, 30 μg/mL antigen, after seven stimulations, 0 μg/mL 3382", "result": 190750, "unit": "RLU"}, {"measurement": "COP 10 μg/mL, ATP proliferation assay", "setting": "[1]; T-cell line 205-1H7, Day 13, 10 μg/mL", "result": 64436, "unit": "RLU"}, {"measurement": "COP 10 μg/mL, ATP proliferation assay", "setting": "[1]; T-cell line 205-1H9, Day 13, 10 μg/mL", "result": 52972, "unit": "RLU"}, {"measurement": "Reactivity (proliferation), Mean", "setting": "[1]; T-cell line 205-1H11, 1 μg/mL antigen, 0 μg/mL 6941", "result": 12243, "unit": "RLU"}, {"measurement": "Reactivity (proliferation), Mean", "setting": "[1]; T-cell line 205-1H11, 10 μg/mL antigen, 0 μg/mL 6941", "result": 147464, "unit": "RLU"}, {"measurement": "Reactivity (proliferation), Mean", "setting": "[1]; T-cell line 205-1H11, 30 μg/mL antigen, 0 μg/mL 6941", "result": 112673, "unit": "RLU"}, {"measurement": "COP 10 μg/mL, ATP proliferation assay", "setting": "[1]; T-cell line 205-1H11, Day 13, 10 μg/mL", "result": 54232, "unit": "RLU"}, {"measurement": "ATP ratio (COP stimulated:unstimulated control)", "setting": "[1]; fifteen Donor 4 wells, Day 13, 10 μg/mL (Table 26)", "result": "two or greater"}, {"measurement": "Proliferation (luminescent ATP assay), Mean", "setting": "[2]; 1 ug/mL antigen", "result": 10056, "unit": "RLU"}, {"measurement": "Proliferation (luminescent ATP assay), Mean", "setting": "[2]; 10 ug/mL antigen", "result": 233083, "unit": "RLU"}, {"measurement": "Proliferation (luminescent ATP assay), Mean", "setting": "[2]; 30 ug/mL antigen", "result": 227055, "unit": "RLU"}, {"measurement": "ratio of proliferation after stimulation with COP to proliferation in response to the APC control", "setting": "[3]", "result": "greater than 3.0"}, {"measurement": "ATP proliferation assay", "setting": "[3]; 165-B6C, control 14966", "result": 77564, "unit": "RLU"}, {"measurement": "ATP proliferation assay", "setting": "[3]; 165-B10C, control 10604", "result": 54779, "unit": "RLU"}, {"measurement": "ATP proliferation assay", "setting": "[3]; 165-C4C, control 23510", "result": 108089, "unit": "RLU"}, {"measurement": "ATP proliferation assay", "setting": "[3]; 165-C7C, control 12707", "result": 63491, "unit": "RLU"}, {"measurement": "ATP proliferation assay", "setting": "[3]; 165-C9C, control 22840", "result": 113199, "unit": "RLU"}, {"measurement": "response in ATP proliferation assay", "setting": "[3]; 165-D2C, 165-C7C, 165-C4C, Day 39, three concentrations (Table 24)", "result": "responded comparably"}, {"measurement": "ATP proliferation assay", "setting": "[3]; 165-D2C, control 12767", "result": 54895, "unit": "RLU"}, {"measurement": "ATP proliferation assay", "setting": "[3]; 165-D3C, control 18380", "result": 119241, "unit": "RLU"}, {"measurement": "ATP proliferation assay", "setting": "[3]; 165-D11C, control 13302", "result": 82759, "unit": "RLU"}, {"measurement": "ATP proliferation assay", "setting": "[3]; 165-E3C, control 12219", "result": 69893, "unit": "RLU"}, {"measurement": "ATP proliferation assay", "setting": "[3]; 165-E9C, control 22512", "result": 98168, "unit": "RLU"}, {"measurement": "ATP proliferation assay", "setting": "[3]; 165-F3C, control 13157", "result": 93437, "unit": "RLU"}, {"measurement": "ATP proliferation assay", "setting": "[3]; 165-F4C, control 13598", "result": 96289, "unit": "RLU"}, {"measurement": "ATP proliferation assay", "setting": "[3]; 165-F6C, control 23457", "result": 135516, "unit": "RLU"}]}
